Reference: paper PMC5453931, “Cathelicidin-trypsin inhibitor loop conjugate represents a promising antibiotic candidate with protease stability” (Scientific Reports, 2017)
In brackets after ≈: the same amount, converted by molar mass. Where two headings read alike, the source gives them in different places.

Assays:
08030209 = assay: microbe, parasite or virus in culture; format: cell-based, Arcyria cinerea; settings: Arcyria cinerea, 18 h, read-out: MIC Arcyria cinerea 08030209
Protocol: (§1) A two-fold broth microdilution method described in our previous paper was used to determine the antimicrobial activities of parental and hybrid peptides. More than 30 strains including Gram-negative bacteria, Gram-positive bacteria and fungi were used in the current assay, in which the standard strains were stored in our lab and the clinical strains were collected from local hospitals. Briefly, bacteria were incubated in Mueller-Hinton broth (MH broth) at 37 °C to exponential phase and diluted to 10^6 CFU/mL. A serial dilution of peptide sample were prepared in 96-well microtiter plates (50 μL) and mixed with equal volume of microbial inoculums (50 μL). The plate was slowly shaken in the microbial incubator, and measured at A595 after incubation at 37 °C for 18 h. The minimal concentrations at which no microbial growth occurred were recorded as MIC (minimal inhibitory concentration) values. The traditional antibiotic ampicillin was used as positive control. The results are shown in an average of the MICs obtained from three independent experiments.

E. coli 08040726 [1] = assay: MIC, two-fold broth microdilution (second listing of the strain number); format: cell-based; settings: Gram-negative, MH broth, 37 °C, 18 h, mean of three independent experiments in duplicates
How it was run: (§2)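 Two-fold broth microdilution in Mueller-Hinton broth: exponential-phase microbes were diluted to 10^6 CFU/mL, then mixed 1:1 with serially diluted peptide. Plates were shaken at 37 °C for 18 h and read at A595. MIC is the lowest concentration with no growth, averaged over three independent experiments.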

E. coli 08040726 [2] = assay: Bacterial killing kinetic assay, colony counting; format: cell-based
Protocol: The bacterial killing kinetics of the hybrid peptides against E. coli 08040726 was determined by counting the changes in the viable bacterial clones after peptide treatment. The experiment was carried out according to the method described previously with minor modifications. Fresh colonies of the bacteria were incubated in MH broth at 37 °C for 12 h and diluted to 10^6 CFU/in fresh MH broth. The hybrid peptide was added to the bacterial suspension with a final concentration of 1x and 5x corresponding MICs, and incubated at 37 °C for 0, 10, 20, 30, 45, 60, 90, 120, and 180 mins. At each time point, aliquots (50 μL) were removed and diluted with fresh MH broth for 1000 times. […] of the dilutions were coated on MH agar plates, incubated overnight at 37 °C, and the viable colonies were counted. Ampicillin was used as positive control and sterile deionized water was used as negative control.

Aeromonas sobria = assay: microbe, parasite or virus in culture; format: cell-based; settings: Aeromonas sobria, 18 h, read-out: MIC Aeromonas sobria
How it was run: as §2

E. Coli 08032823 = assay: microbe, parasite or virus in culture; format: cell-based; settings: Escherichia coli, 18 h, read-out: MIC E. Coli 08032823
How it was run: as §2

S. Aureus 08032810 = assay: microbe, parasite or virus in culture; format: cell-based; settings: Staphylococcus aureus, 18 h, read-out: MIC S. Aureus 08032810
How it was run: as §2

S. Aureus 08032706 = assay: microbe, parasite or virus in culture; format: cell-based; settings: Staphylococcus aureus, 18 h, read-out: MIC S. Aureus 08032706
How it was run: as §2

[3] = test system: Enterococcus faecium 08052315; assay: microbe, parasite or virus in culture; format: cell-based; settings: Enterococcus faecium, 08052315, 18 h, read-out: MIC Enterococcus faecium 08052315
How it was run: as §2

Edwardsiella tarda = assay: microbe, parasite or virus in culture; format: cell-based; settings: Edwardsiella tarda, 18 h, read-out: MIC Edwardsiella tarda
How it was run: as §2

S. Maltophilia 090223 = assay: microbe, parasite or virus in culture; format: cell-based; settings: Stenotrophomonas maltophilia, 18 h, read-out: MIC S. Maltophilia 090223
How it was run: as §2

Proteus mirabilis 1376 = assay: microbe, parasite or virus in culture; format: cell-based; settings: Proteus mirabilis, 1376, 18 h, read-out: MIC Proteus mirabilis 1376
How it was run: as §2

[4] = test system: Bacillus subtilis 08042313; assay: microbe, parasite or virus in culture; format: cell-based; settings: Bacillus subtilis, 08042313, 18 h, read-out: MIC Bacillus subtilis 08042313
How it was run: as §2

Vibrio harveyi = assay: microbe, parasite or virus in culture; format: cell-based; settings: Vibrio harveyi, 18 h, read-out: MIC Vibrio harveyi
How it was run: as §2

K. Pneumoniae 08040202 = assay: microbe, parasite or virus in culture; format: cell-based; settings: Klebsiella pneumoniae, 18 h, read-out: MIC K. Pneumoniae 08040202
How it was run: as §2

Vibrio brasiiensis = assay: microbe, parasite or virus in culture; format: cell-based; settings: Vibrio, 18 h, read-out: MIC Vibrio brasiiensis
How it was run: as §2

Vibrio cholerae = assay: microbe, parasite or virus in culture; format: cell-based; settings: Vibrio cholerae, 18 h, read-out: MIC Vibrio cholerae
Candida glabrata 08A802 = assay: microbe, parasite or virus in culture; format: cell-based; settings: Nakaseomyces glabratus, 08A802, 18 h, read-out: MIC Candida glabrata 08A802
How it was run: as §2

S. Aureus 08032615 = assay: microbe, parasite or virus in culture; format: cell-based; settings: Staphylococcus aureus, 18 h, read-out: MIC S. Aureus 08032615
How it was run: as §2

[5] = test system: Candida albicans 08030102; assay: microbe, parasite or virus in culture; format: cell-based; settings: Candida albicans, 08030102, 18 h, read-out: MIC Candida albicans 08030102
How it was run: as §2

[6] = test system: Shigella dysenteriae 0804203; assay: microbe, parasite or virus in culture; format: cell-based; settings: Shigella dysenteriae, 0804203, 18 h, read-out: MIC Shigella dysenteriae 0804203
How it was run: as §2

[7] = test system: Escherichia coli ATCC25922; assay: microbe, parasite or virus in culture; format: cell-based; settings: Escherichia coli, ATCC25922, 18 h, read-out: MIC Escherichia coli ATCC25922
How it was run: as §2

Aeromonas veronii = assay: microbe, parasite or virus in culture; format: cell-based; settings: Aeromonas veronii, 18 h, read-out: MIC Aeromonas veronii
How it was run: as §2

[8] = test system: Nocardia asteroides 08052412; assay: microbe, parasite or virus in culture; format: cell-based; settings: Nocardia asteroides, 08052412, 18 h, read-out: MIC Nocardia asteroides 08052412
How it was run: as §2

P. Aeruginosa 08021015 = assay: microbe, parasite or virus in culture; format: cell-based; settings: Pseudomonas aeruginosa, 18 h, read-out: MIC P. Aeruginosa 08021015
How it was run: as §2

K. Pneumoniae 08031012 = assay: microbe, parasite or virus in culture; format: cell-based; settings: Klebsiella pneumoniae, 18 h, read-out: MIC K. Pneumoniae 08031012
How it was run: as §2

E. coli 08040726 [9] = format: cell-based; settings: Gram-negative, two-fold broth microdilution, MH broth, 37 °C, 18 h, mean of three independent experiments in duplicates
Protocol: as §1

[10] = test system: Staphylococcus epidermidis; assay: MIC, two-fold broth microdilution; format: cell-based; settings: Staphylococcus epidermidis, 18 h, read-out: MIC Staphylococcus epidermidis
How it was run: as §2

Vibrio Parahaemolyticus = assay: MIC, two-fold broth microdilution; format: cell-based; settings: Vibrio parahaemolyticus, 18 h, read-out: MIC Vibrio Parahaemolyticus
How it was run: as §2

E. Coli 08032813 = assay: MIC, two-fold broth microdilution; format: cell-based; settings: Escherichia coli, 18 h, read-out: MIC E. Coli 08032813
How it was run: as §2

## CC1(C)S[C@@H]2[C@H](NC(=O)[C@H](N)c3ccccc3)C(=O)N2[C@H]1C(=O)O [Ampicillin, reference compound]
08030209
  MIC: > 200 µg/mL
E. coli 08040726 [1]
  MIC E. Coli 08040726 (second line with this strain number): — (no detectable activity in MIC assay in dose of 200 µg/mL or in trypsin inhibition assay at concentration of 160 μg/mL)
E. coli 08040726 [2]; 1xMIC
  time of killing toward E. coli: 6 h
E. coli 08040726 [2]; 5xMIC
  time of killing toward E. coli: 3 h
Aeromonas sobria
  MIC: > 200 µg/mL
E. Coli 08032823
  MIC: > 200 µg/mL
S. Aureus 08032810
  MIC: > 200 µg/mL
S. Aureus 08032706
  MIC: 18.8 µg/mL (≈ 53.7 µM)
[3]
  MIC: > 200 µg/mL
Edwardsiella tarda
  MIC: > 200 µg/mL
S. Maltophilia 090223
  MIC: > 200 µg/mL
Proteus mirabilis 1376
  MIC: 75 µg/mL (≈ 215 µM)
[4]
  MIC: 75 µg/mL (≈ 215 µM)
Vibrio harveyi
  MIC: 37.5 µg/mL (≈ 107 µM)
K. Pneumoniae 08040202
  MIC: > 200 µg/mL
Vibrio brasiiensis
  MIC: > 200 µg/mL
Vibrio cholerae
  MIC: > 200 µg/mL
Candida glabrata 08A802
  MIC: 18.8 µg/mL (≈ 53.7 µM)
S. Aureus 08032615
  MIC: 9.38 µg/mL (≈ 26.8 µM)
[5]
  MIC: 18.8 µg/mL (≈ 53.7 µM)
[6]
  MIC: 75 µg/mL (≈ 215 µM)
[7]
  MIC: 4.69 µg/mL (≈ 13.4 µM)
Aeromonas veronii
  MIC: > 200 µg/mL
[8]
  MIC: > 200 µg/mL
P. Aeruginosa 08021015
  MIC: 9.38 µg/mL (≈ 26.8 µM)
K. Pneumoniae 08031012
  MIC: > 200 µg/mL
E. coli 08040726 [9]
  MIC E. coli 08040726: 9.38 µg/mL (≈ 26.8 µM)
E. coli 08040726 [9]; listed as ampicillin
  MIC E. coli 08040726: 0.12 µg/mL (≈ 0.343 µM)
[10]
  MIC: > 200 µg/mL
Vibrio Parahaemolyticus
  MIC: 18.8 µg/mL (≈ 53.7 µM)
E. Coli 08032813
  MIC: > 200 µg/mL
